Key:
[1] = target: T1, progesterone receptor (PR) (Homo sapiens, UniProt P06401); test: Radioligand binding assay with progesterone receptor cytosol (similar protocol)
T1 sequence (P06401 1-933): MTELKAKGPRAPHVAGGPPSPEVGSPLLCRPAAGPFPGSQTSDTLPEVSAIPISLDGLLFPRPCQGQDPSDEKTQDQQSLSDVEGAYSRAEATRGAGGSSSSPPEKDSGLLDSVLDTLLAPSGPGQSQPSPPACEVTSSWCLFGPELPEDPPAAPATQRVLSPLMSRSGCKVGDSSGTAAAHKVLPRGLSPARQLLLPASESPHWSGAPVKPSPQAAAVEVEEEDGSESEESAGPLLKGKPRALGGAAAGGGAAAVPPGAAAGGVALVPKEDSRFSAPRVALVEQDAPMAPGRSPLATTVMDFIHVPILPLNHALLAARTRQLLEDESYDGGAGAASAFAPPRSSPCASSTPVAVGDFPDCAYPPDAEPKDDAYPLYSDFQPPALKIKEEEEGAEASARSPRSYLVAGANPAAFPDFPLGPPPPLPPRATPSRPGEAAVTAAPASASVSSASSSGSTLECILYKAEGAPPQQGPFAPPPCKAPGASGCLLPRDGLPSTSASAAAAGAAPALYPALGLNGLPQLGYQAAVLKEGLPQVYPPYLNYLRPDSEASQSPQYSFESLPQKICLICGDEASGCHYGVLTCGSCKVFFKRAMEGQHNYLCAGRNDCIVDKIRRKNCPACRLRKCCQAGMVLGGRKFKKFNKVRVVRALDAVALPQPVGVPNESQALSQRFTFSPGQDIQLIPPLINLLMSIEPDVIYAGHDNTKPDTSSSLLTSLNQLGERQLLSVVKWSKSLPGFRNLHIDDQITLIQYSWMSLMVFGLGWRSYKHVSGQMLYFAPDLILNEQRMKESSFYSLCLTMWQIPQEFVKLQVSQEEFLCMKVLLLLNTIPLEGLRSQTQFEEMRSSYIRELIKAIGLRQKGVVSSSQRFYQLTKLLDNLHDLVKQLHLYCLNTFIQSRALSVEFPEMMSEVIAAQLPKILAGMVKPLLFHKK
Description: Methods for Radioligand Binding Studies with Human Glucocorticoid and Progesterone Receptor Cytosol
A similar protocol was employed to measure affinity of the compounds of the present invention for progesterone receptor (PR).

[2] = target: T2, Human glucocorticoid receptors (Homo sapiens, UniProt P04150); test: Radioligand filter binding assay, displacement of 3(H)-dexamethasone from human glucocorticoid receptor cytosol; conditions: 1.7 μM test compound, inhibition of 3(H)-dex binding to hGR; for inhibition at 1.7 µM: read-out: GR BINDING (% Inhibition @ 1.7 μM)
T2 construct: made in house; host or cells: Sf9 insect cells, recombinant baculovirus (BAC-TO-BAC)
T2 sequence (P04150 1-777): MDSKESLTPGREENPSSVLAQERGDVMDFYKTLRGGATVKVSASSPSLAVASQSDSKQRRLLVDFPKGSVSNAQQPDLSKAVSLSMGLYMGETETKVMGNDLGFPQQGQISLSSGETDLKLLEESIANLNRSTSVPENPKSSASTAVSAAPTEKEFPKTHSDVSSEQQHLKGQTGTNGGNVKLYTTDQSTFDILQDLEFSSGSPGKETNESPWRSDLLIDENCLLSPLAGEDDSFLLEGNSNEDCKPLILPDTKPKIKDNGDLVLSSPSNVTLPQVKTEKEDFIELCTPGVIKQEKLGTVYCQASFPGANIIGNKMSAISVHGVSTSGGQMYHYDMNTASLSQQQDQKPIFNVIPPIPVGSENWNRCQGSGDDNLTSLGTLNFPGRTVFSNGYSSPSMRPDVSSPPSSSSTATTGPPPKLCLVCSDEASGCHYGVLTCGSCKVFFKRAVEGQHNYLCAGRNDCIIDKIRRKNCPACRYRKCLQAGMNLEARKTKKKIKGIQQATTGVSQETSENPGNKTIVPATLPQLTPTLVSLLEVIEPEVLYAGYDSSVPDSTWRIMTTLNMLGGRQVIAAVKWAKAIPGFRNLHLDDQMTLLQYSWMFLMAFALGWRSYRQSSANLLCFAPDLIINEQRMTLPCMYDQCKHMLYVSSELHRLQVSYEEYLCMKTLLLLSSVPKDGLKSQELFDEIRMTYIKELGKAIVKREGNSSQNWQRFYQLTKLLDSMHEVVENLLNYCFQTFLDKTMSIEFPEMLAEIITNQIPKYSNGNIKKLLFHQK

IC50 [1] | GR BINDING (% Inhibition @ 1.7 μM) [2] | inhibition at 1.7 µM [2] | Compound
> 1 µM |  | 90.6% | COc1cccc2c1-c1ccc(NS(C)(=O)=O)cc1C(c1cccc(Oc3ccccc3)c1)O2 (stereo not shown) [Example 139, N-[1-methoxy-6-(3-phenoxyphenyl)-6H-benzo[c]chromen-8-yl]methanesulfonamide]
0.48 µM | 90.4% |  | (1-methoxy-6-(3-fluorophenyl)-6H-dibenzo(b,d)pyran-8-yl)methanesulfonamide [Example 77]
0.077 µM |  | 90.4% | COc1cccc2c1-c1ccc(NS(C)(=O)=O)cc1C(c1cccc(C)c1)O2 (stereo not shown) [Example 86, N-[1-methoxy-6-(3-methylphenyl)-6H-benzo[c]chromen-8-yl]methanesulfonamide]
 |  | 86.1% | COc1cccc2c1-c1ccc(NS(C)(=O)=O)cc1C(/C=C/c1ccccc1)O2 (stereo not shown) [Example 89, N-{1-methoxy-6-[(E)-2-phenylethenyl]-6H-benzo[c]chromen-8-yl}methanesulfonamide]
 |  | 84.1% | COc1cccc2c1-c1ccc(NS(C)(=O)=O)cc1C(c1cccc(Oc3ccc(C(C)=O)cc3)c1)O2 (stereo not shown) [Example 140, N-{6-[3-(4-acetylphenoxy)phenyl]-1-methoxy-6H-benzo[c]chromen-8-yl}methanesulfonamide]
 |  | 69.5% | COc1cccc2c1-c1ccc(NS(C)(=O)=O)cc1C(c1cccc(CCCC(=O)O)c1)O2 (stereo not shown) [Example 151, 4-(3-{1-methoxy-8-[(methylsulfonyl)amino]-6H-benzo[c]chromen-6-yl}phenyl)butanoic acid]
 |  | 83.7% | CCOC(=O)C(C)CCCc1cccc(C2Oc3cccc(OC(F)F)c3-c3ccc(NS(C)(=O)=O)cc32)c1 (stereo not shown) [Example 135, ethyl 5-(3-{1-(difluoromethoxy)-8-[(methylsulfonyl)amino]-6H-benzo[c]chromen-6-yl}phenyl)-2-methylpentanoate]
 |  | 81.6% | COc1cccc2c1-c1ccc(NS(C)(=O)=O)cc1C(Cc1cc(F)cc(F)c1)O2 (stereo not shown) [Example 85, N-[6-(3,5-difluorobenzyl)-1-methoxy-6H-benzo[c]chromen-8-yl]methanesulfonamide]
 |  | 91.7% | COc1cccc2c1-c1ccc(NS(C)(=O)=O)cc1C(c1cccc(CCCC#N)c1)O2 (stereo not shown) [Example 112, N-{6-[3-(3-cyanopropyl)phenyl]-1-methoxy-6H-benzo[c]chromen-8-yl}methanesulfonamide]
 |  | 66.1% | CCOC(=O)CCCCCC1Oc2cccc(OC)c2-c2ccc(NS(C)(=O)=O)cc21 (stereo not shown) [Example 79, ethyl 6-{1-methoxy-8-[(methylsulfonyl)amino]-6H-benzo[c]chromen-6-yl}hexanoate]
 |  | 63.8% | COc1cccc2c1-c1ccc(NS(C)(=O)=O)cc1C(c1cccc(-c3ccc(C(=O)O)cc3)c1)O2 (stereo not shown) [Example 122, 3′-{1-methoxy-8-[(methylsulfonyl)amino]-6H-benzo[c]chromen-6-yl}[1,1′-biphenyl]-4-carboxylic acid]

The next lines start with the compound.

Compound | IC50 [1] | GR BINDING (% Inhibition @ 1.7 μM) [2] | inhibition at 1.7 µM [2]
(1-methoxy-6-(3,4-dichlorophenyl)-6H-dibenzo(b,d)pyran-8-yl)methanesulfonamide [Example 63] | 1.2 µM | 98.5% | 
(1-methoxy-6-(4-methylphenyl)-6H-dibenzo(b,d)pyran-8-yl)methanesulfonamide [Example 76] | 0.67 µM | 89.7% | 
(1-methoxy-6-(5-bromothien-2-yl)-6H-dibenzo(b,d)pyran-8-yl)methanesulfonamide [Example 62] | 0.172 µM | 94.5% | 
(1-difluoromethoxy-6-(4-(N-allyl-N-methylamino)phenyl)-6H-dibenzo(b,d)pyran-8-yl)-methanesulfonamide [Example 30] | 1.28 µM | 85.6% | 
COc1cccc2c1-c1ccc(NS(C)(=O)=O)cc1[C@H](c1ccccc1)O2 [Example 24, 6S-(1-methoxy-6-phenyl-6H-dibenzo(b,d)pyran-8-yl)methanesulfonamide] | 0.8 µM |  | 88.9%
COc1cccc2c1-c1ccc(NS(C)(=O)=O)cc1C(CCCCCCC#N)O2 (stereo not shown) [Example 48] | > 10 µM |  | 90.8%
(1-methoxy-6-(4-chlorobutyl)-6H-dibenzo(b,d)pyran-8-yl)methanesulfonamide [Example 57] | 1.09 µM | 94.9% | 
C=CCOc1cccc(C2Oc3cccc(OC)c3-c3ccc(NS(C)(=O)=O)cc32)c1 (stereo not shown) [Example 33, (1-methoxy-6-(3-allyloxy)phenyl-6H-dibenzo(b,d)pyran-8-yl)-methanesulfonamide] | 5.49 µM |  | 87.5%
(1-difluoromethoxy-6-allyl-6H-dibenzo(b,d)pyran-8-yl)-methanesulfonamide [Example 31] | 0.079 µM | 90.0% | 
(1-methoxy-6-(2-thienyl)-6H-dibenzo(b,d)pyran-8-yl)methanesulfonamide [Example 54] | 0.45 µM | 94.1% | 
(1-methoxy-6-allyl-6H-dibenzo(b,d)pyran-8-yl)methanesulfonamide [Example 53] | 1.42 µM | 92.9% | 
(1-methoxy-6-(3-cyanophenyl)-6H-dibenzo(b,d)pyran-8-yl)methanesulfonamide [Example 50] | 1.05 µM | 93.7% | 
COc1cccc2c1-c1ccc(CCN)cc1C(c1ccccc1)O2 (stereo not shown) [Example 19, (1-methoxy-6-phenyl-6H-dibenzo(b,d)pyran-8-yl)ethylamine] |  |  | 66%
COc1cccc2c1-c1ccc(CC(N)=O)cc1C(c1ccccc1)O2 (stereo not shown) [Example 12, (1-methoxy-6-phenyl-6H-dibenzo(b,d)pyran-8-yl)acetamide] |  |  | 86.1%
C=Cc1cccc2c1-c1ccc(NS(C)(=O)=O)cc1C(c1ccccc1)O2 (racemic) [Example 37] |  |  | 94.8%
COc1cccc2c1-c1ccc(CS(N)(=O)=O)cc1C(C1CCCCC1=O)O2 (stereo not shown) [Example 72, (1-methoxy-6-(2-(1-oxocyclohexyl))-6H-dibenzo(b,d)pyran-8-yl)methanesulfonamide] |  | 58.8% | 
COc1cccc2c1-c1ccc(NS(=O)(=O)C(C)C)cc1C(c1ccccc1)O2 (stereo not shown) [Example 8, (1-methoxy-6-phenyl-6H-dibenzo(b,d)pyran-8-yl)isopropanesulfonamide] |  | 87.9% | 
CCCN(C)c1ccc(C2Oc3cccc(OC(F)F)c3-c3ccc(N)c(Br)c32)cc1 (stereo not shown) [Example 29, (1-difluoromethoxy-6-(4-(N-propyl-N-methylamino)phenyl)-7-bromo-6H-dibenzo(b,d)pyran-8-yl)-amine] |  |  | 55%
CCS(=O)(=O)Nc1ccc2c(c1)C(c1ccccc1)Oc1cccc(OC)c1-2 (stereo not shown) [Example 7, (1-methoxy-6-phenyl-6H-dibenzo(b,d)pyran-8-yl)ethanesulfonamide] |  | 90.6% | 
COCCNC(=O)c1cccc(C2Oc3cccc(OC)c3-c3ccc(NS(C)(=O)=O)cc32)c1 (stereo not shown) [Example 64, (1-methoxy-6-(3-(2-methoxyethyl)aminocarbonyl)phenyl-6H-dibenzo(b,d)pyran-8-yl)-methanesulfonamide] |  | 44.3% | 

— patent publication US6593480B2 (Abbott Laboratories, priority 1999, dated 2003)
